Tests used:
DDX49_258 = target: T1, DDX49_258 (Homo sapiens, UniProt Q9Y6V7); experiment: IA-DTB cysteine engagement; assay type: binding; details: 22Rv1 cells, 5 μM probe, 1 h (FIG. 5B), relative to DMSO
T1 construct: endogenous in cells; host or cells: 22Rv1
Procedure, shortened: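 First, cells are exposed to electrophilic probes in situ. Next, lysates are labeled with IA-DTB (1 h, ambient temperature), reduced, alkylated and trypsin-digested. Then, IA-DTB peptides are enriched on streptavidin, TMT-labeled and analyzed, with ratios taken against DMSO channels.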

PSME1 22 = target: T2, PSME1 22 (Homo sapiens, UniProt Q06323); experiment: IA-DTB cysteine engagement, GluC + trypsin digest; assay type: binding; details: 22Rv1 cells
T2 construct: stereoselectively engaged C22 of endogenous PSME1 in 22Rv1 cells; endogenous in cells; host or cells: 22Rv1
T2 sequence (Q06323 whole entry): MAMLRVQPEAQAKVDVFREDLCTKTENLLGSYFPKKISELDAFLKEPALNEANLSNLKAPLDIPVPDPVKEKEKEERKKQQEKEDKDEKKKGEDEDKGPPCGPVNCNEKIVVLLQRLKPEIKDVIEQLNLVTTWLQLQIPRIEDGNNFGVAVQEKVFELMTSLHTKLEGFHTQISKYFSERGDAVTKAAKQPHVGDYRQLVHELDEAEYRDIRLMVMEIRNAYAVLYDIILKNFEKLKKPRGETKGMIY
Protocol: Sample preparation: Cells (adherent: 15 cm dishes, suspension: 2 million cells/mL) were treated with electrophilic probes in situ for indicated times and concentrations, washed with ice-cold PBS, and flash frozen in liquid nitrogen. Cell pellets were lysed by sonication (8 pulses, 40% power) in 500 μL ice-cold PBS supplemented with cOmplete protease inhibitors (1 tablet/10 mL of PBS). Whole cell lysates protein content was measured using a standard DC protein assay (Bio-Rad) and 500 μL (2 mg/mL protein content) were treated with 5 μL of 10 mM 1A-DTB (in DMSO) for 1 h at ambient temperature with occasional vortexing. Samples were methanol-chloroform precipitated with the addition of 500 μL ice-cold MeOH and 200 μL CHCl3, vortexed, and centrifuged (10 min, 10,000 g). Without disrupting the protein disk, both top and bottom layers were aspirated and the protein disk was washed with 1 mL ice-cold MeOH and centrifuged (10 min, 10,000 g). The pellets were allowed to air dry, and then re-suspended in 90 μL buffer (9 M urea, 10 mM DTT, 50 mM TEAB pH 8.5). Samples were reduced by heating at 65 C for 20 minutes and water bath sonicated as needed to resuspend the protein pellets, followed by alkylation via addition of 10 μL (500 mM) iodoacetamide and incubated at 37 C for 30 min with shaking. Samples were briefly centrifuged, and probe sonicated once more to ensure complete resuspension, and then diluted with 300 μL buffer (50 mM TEAB pH 8.5) to reach final concentration of 2 M urea. […] Digested samples were then diluted with 300 μL wash buffer (50 mM TEAB pH 8.5, 150 mM NaCl, 0.2% NP-40) containing streptavidin-agarose beads (50 μL of 50% slurry in wash buffer) and were rotated at room temperature for 2 hours. Enriched samples were pelleted by centrifugation (2000 g, 2 min) and transferred to BioSpin columns and washed (3×1 mL wash buffer, 3×1 mL PBS, 3×1 mL water). Enriched peptides were eluted by 300 μL 50% acetonitrile with 0.1% formic acid and eluate was evaporated to dryness via speedvac. IA-DTB labeled and enriched peptides were resuspended in 100 μL EPPS buffer (200 mM, pH 8.0) with 30% acetonitrile, vortexed, and water bath sonicated. Samples were TMT labeled with 3 μL of corresponding TMT tag (5 mg tag resuspended in 256 μL acetonitrile), vortexed, and incubated at room temperature for 1 hour. […]
Data processing: Cysteine engagement ratios (probe vs DMSO) were calculated for each peptide-spectra match by dividing each TMT reporter ion intensity by the average intensity for the channels corresponding to DMSO treatment. […]
Samples were analyzed by liquid chromatography tandem mass-spectrometry using an Orbitrap Fusion mass spectrometer (Thermo Scientific) coupled to an UltiMate 3000 Series Rapid Separation LC system and autosampler (Thermo Scientific Dionex). […]

T1 sequence (Q9Y6V7 whole entry): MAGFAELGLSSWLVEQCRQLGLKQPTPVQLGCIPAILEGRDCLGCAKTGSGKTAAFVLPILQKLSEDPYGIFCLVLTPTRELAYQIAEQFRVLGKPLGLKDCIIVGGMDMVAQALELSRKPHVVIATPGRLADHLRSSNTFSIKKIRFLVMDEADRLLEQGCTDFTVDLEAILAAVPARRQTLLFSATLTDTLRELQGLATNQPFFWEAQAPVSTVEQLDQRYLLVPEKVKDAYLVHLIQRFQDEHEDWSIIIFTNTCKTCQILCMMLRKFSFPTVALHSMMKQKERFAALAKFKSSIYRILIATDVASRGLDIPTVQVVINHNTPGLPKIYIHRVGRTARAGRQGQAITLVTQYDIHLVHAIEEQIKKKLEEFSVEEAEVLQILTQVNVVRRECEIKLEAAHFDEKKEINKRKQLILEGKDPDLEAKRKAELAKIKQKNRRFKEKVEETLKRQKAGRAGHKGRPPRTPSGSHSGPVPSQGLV

SMILES	% engagement DDX49_258 (DDX49_258) [%]	percent engagement relative to DMSO, PSME1 22 (PSME1 22; 5 uM) [%]	percent engagement relative to DMSO, PSME1 22 (PSME1 22; 20 uM) [%]
C=CC(=O)N1C[C@H](c2ccc(Br)cc2)[C@@H]1C(=O)Nc1cccc2cccnc12 [MY-1B, (2R,3S)-1-acryloyl-3-(4-bromophenyl)-N-(quinolin-8-yl)azetidine-2-carboxamide]	5.50	–	–
CC#CC(=O)N1C[C@H](c2ccc(Br)cc2)[C@@H]1C(=O)Nc1cccc2cccnc12 [MY-45B, (2R,3S)-3-(4-bromophenyl)-1-(but-2-ynoyl)-N-(quinolin-8-yl)azetidine-2-carboxamide]	82.25	–	–
C=CC(=O)N1[C@H](c2ccc3c(c2)OCO3)c2[nH]c3ccccc3c2C[C@H]1C(=O)N1CCOCC1 [WX-02-23, 1-((1R,3S)-1-(benzo[d][1,3]dioxol-S-yl)-3-(morpholine-4-carbonyl)-1,3,4,9-tetrahydro-2H-pyrido [3,4-b]indol-2-yl)prop-2-en-1-one]	–	−20.9	−29.44
C=CC(=O)N1[C@@H](c2ccc3c(c2)OCO3)c2[nH]c3ccccc3c2C[C@@H]1C(=O)N1CCOCC1 [WX-02-43, 1-((1S,3R)-1-(benzo[d][1,3]dioxol-5-yl)-3-(morpholine-4-carbonyl)-1,3,4,9-tetrahydro-2H-pyrido [3,4-b]indol-2-yl)prop-2-en-1-one]	–	−24.33	−26.32
